The values below come from patent publication US20090209536A1, “AMINOQUINAZOLINE CANNABINOID RECEPTOR MODULATORS FOR TREATMENT OF DISEASE” (KALYPSYS, INC., priority 2007, published 2009).

One may read the pEC50 as −log10 of the EC50, conventionally taken in molar units.

pEC50: −log10 of the molar value. Like-named read-outs stand apart in the source and are kept apart here.

In experiment [1] the target is T1, human cannabinoid receptor type 2 (Homo sapiens, UniProt P34972).
T1 construct: expressed in transfected cells; membrane preparation
T1 sequence (P34972 whole entry): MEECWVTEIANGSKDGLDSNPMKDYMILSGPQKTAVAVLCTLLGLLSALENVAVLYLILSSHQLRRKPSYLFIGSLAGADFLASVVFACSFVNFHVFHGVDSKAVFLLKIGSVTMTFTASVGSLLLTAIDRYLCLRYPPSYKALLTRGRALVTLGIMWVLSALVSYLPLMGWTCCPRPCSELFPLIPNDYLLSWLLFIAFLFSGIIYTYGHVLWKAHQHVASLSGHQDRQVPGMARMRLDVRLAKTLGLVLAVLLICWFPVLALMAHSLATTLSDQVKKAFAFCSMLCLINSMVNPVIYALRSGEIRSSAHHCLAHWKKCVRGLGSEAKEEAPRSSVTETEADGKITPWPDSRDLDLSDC
Put plainly: Human CB2 Radioligand Binding Assay. The settings on record: membranes from stably transfected CHO CB2 cells. A digest of the protocol: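 Filtration competition binding on membranes from CHO cells stably expressing human CB2, with [3H]CP-55,940 at its lot-specific Kd, in 50 mM Tris-HCl pH 7.4, EGTA, MgCl2, 5 mg/ml BSA, 1% DMSO; 90 min at 30° C. Compounds at 10 uM single point or dose-response; bound radioactivity by scintillation, 100 nM CP-55,940 as 100% efficacy.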

Experiment [2] concerns the target T2, human cannabinoid receptor type 1 (Homo sapiens, UniProt P21554).
T2 construct: purchased Perkin Elmer RBHCB1M; host or cells: HEK 293 EBNA cells
The experiment in a line: Human CB1 Radioligand Binding Assay (basis of selectivity, CB2 vs. CB1). The settings on record: CB1: HEK 293 EBNA cells expressing human CB1; CB2: CHO CB2 membranes. Here is the method:
2. Human CB1 Radioligand Binding Assay
The incubation buffer was composed of 50 mM Tris-HCl pH 7.4, 2.5 mM EDTA, 5 mM MgCl2, 5.0 mg/ml fatty acid free BSA and the wash buffer was composed of 50 mM Tris-HCl pH 7.4, 2.5 mM EDTA, 5 mM MgCl2, 0.5 mg/ml fatty acid free BSA.

Where [3] appears, read: competition with [3H] CP-55,940, read-out: CB2 Ligand Binding Asssay EC50.
The mark [4] stands for this setting: CB2 Ligand Binding Asssay EC50, competition with [3H] CP-55,940.

T2 sequence (P21554 whole entry): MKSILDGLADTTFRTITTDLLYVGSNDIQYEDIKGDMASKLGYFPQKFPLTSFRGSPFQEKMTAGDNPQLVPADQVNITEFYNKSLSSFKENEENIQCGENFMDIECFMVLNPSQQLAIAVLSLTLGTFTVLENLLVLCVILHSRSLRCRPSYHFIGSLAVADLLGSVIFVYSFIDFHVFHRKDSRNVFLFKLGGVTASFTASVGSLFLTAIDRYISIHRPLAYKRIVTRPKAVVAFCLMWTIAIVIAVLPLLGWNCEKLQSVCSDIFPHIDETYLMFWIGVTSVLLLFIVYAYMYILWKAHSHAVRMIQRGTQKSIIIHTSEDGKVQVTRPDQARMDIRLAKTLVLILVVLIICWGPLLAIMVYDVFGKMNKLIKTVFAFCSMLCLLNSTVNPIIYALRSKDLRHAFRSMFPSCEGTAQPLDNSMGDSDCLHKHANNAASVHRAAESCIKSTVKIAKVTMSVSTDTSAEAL

Consider `CCOC(=O)N1CCN(c2nc(-c3ccccc3Cl)nc3cccc(OC)c23)CC1` [Example 244, Ethyl 4-(2-(2-chlorophenyl)-5-methoxyquinazolin-4-yl)piperazine-1-carboxylate], for which the pEC50 in experiment [1] (setting [3]) is over 6.00. In experiment [2], the “Selectivity, CB2 vs. CB1” value is recorded as “+ (+ indicates > 10−fold)”.
Turning to `Cc1ccccc1Cc1nc(N2CCCC2)c2ccccc2n1` [Example 341, 2-(2-Methylbenzyl)-4-(pyrrolidin-1-yl)quinazoline], in experiment [1] (setting [3]), the pEC50 was over 6.00. For the same compound, the “Selectivity, CB2 vs. CB1” value in experiment [2] is on record as “− (− indicates ≦ 10−fold)”.
Taken in the same sequence, the figures for `O=S(=O)(NCc1nc(NC2CCCC2)c2ccccc2n1)c1cccc2ccccc12` [Example 305, N-((4-(Cyclopentylamino)quinazolin-2-yl)methyl)naphthalene-1-sulfonamide] were over 6.00 and “− (− indicates ≦ 10−fold)”.
The like results for `O=S(=O)(NCc1nc(N2CCCC2)c2ccccc2n1)c1ccccc1` [Example 3, N-((4-(Pyrrolidin-1-yl)quinazolin-2-yl)methyl)benzenesulfonamide] were, in that order, over 6.00 and “+ (+ indicates > 10−fold)”.
The like results for `CC1CCCCN1c1nc(-c2ccccc2Cl)nc2ccccc12` (centres unmarked) [Example 59, 2-(2-Chlorophenyl)-4-(2-methylpiperidin-1-yl)quinazoline] were, in that order, over 6.00 and “− (− indicates ≦ 10−fold)”.
For `CN1CCN(c2nc(-c3ccccc3F)nc3ccccc23)CC1` [Example 152, 2-(2-Fluorophenyl)-4-(4-methylpiperazin-1-yl)quinazoline], the negative-log EC50 (pEC50) in experiment [1] (setting [3]) is over 6.00. Besides, the “Selectivity, CB2 vs. CB1” value in experiment [2] is on record as “+ (+ indicates > 10−fold)”.
On to `CN1CCN(c2nc(-c3ccccc3Cl)nc3ccc(C(C)(C)C)cc23)CC1` [Example 168, 6-tert-Butyl-2-(2-chlorophenyl)-4-(4-methylpiperazin-1-yl)quinazoline], for which the pEC50 in experiment [1] (setting [3]) is over 6.00. The “Selectivity, CB2 vs. CB1” value in experiment [2] is given as “+ (+ indicates > 10−fold)”.
Taken in the same sequence, the figures for `CS(=O)(=O)N1CCN(c2nc(-c3ccccc3Cl)nc3ccccc23)CC1` [Example 86, 2-(2-Chlorophenyl)-4-(4-(methylsulfonyl)piperazin-1-yl)quinazoline] were over 6.00 and “− (− indicates ≦ 10−fold)”.
In the case of `CN(c1ccc(C(C)(C)C)cc1)c1nc(-c2ccc(F)c(F)c2)nc2ccccc12` [Example 21, N-(4-tert-Butylphenyl)-2-(3,4-difluorophenyl)-N-methylquinazolin-4-amine], in experiment [1] (setting [3]), the negative-log EC50 (pEC50) was under 6.00. Also, the “Selectivity, CB2 vs. CB1” value in experiment [2] was “− (− indicates ≦ 10−fold)”.
With `O=C1CNCCN1c1nc(-c2ccccc2Cl)nc2ccccc12` [Example 71, 1-(2-(2-Chlorophenyl)quinazolin-4-yl)piperazin-2-one], the pEC50 in experiment [1] (setting [3]) is under 6.00. Further, the “Selectivity, CB2 vs. CB1” value in experiment [2] was “− (− indicates ≦ 10−fold)”.
For the compound `C[C@@H]1CN(c2nc(-c3ccccc3Cl)nc3ccccc23)C[C@H](C)N1` [Example 77, 2-(2-Chlorophenyl)-4-((3S,5R)-3,5-dimethylpiperazin-1-yl)quinazoline], the pEC50 in experiment [1] (setting [3]) is under 6.00. Besides, in experiment [2], the “Selectivity, CB2 vs. CB1” value was “− (− indicates ≦ 10−fold)”.
As for `CC(=O)N1CCN(c2nc(-c3ccccc3F)nc3ccc(Cl)cc23)CC1` [Example 271, 1-(4-(6-Chloro-2-(2-fluorophenyl)quinazolin-4-yl)piperazin-1-yl)ethanone], in experiment [1] (setting [3]), the pEC50 was over 6.00. Moreover, the “Selectivity, CB2 vs. CB1” value in experiment [2] was “− (− indicates ≦ 10−fold)”.
Taken in the same sequence, the figures for `CCN(CC)CCNC(=O)c1sccc1S(=O)(=O)NCc1nc(N2CCCC2)c2ccccc2n1` [Example 9, N-(2-(Diethylamino)ethyl)-3-(N-((4-(pyrrolidin-1-yl)quinazolin-2-yl)methyl)sulfamoyl)thiophene-2-carboxamide] were under 6.00 and “− (− indicates ≦ 10−fold)”.
Taken in the same sequence, the figures for `Clc1ccc(-c2nc(NCc3ccccc3)c3ccccc3n2)c(Cl)c1` [Example 31, Benzyl[2-(2,4-dichlorophenyl)quinazolin-4-yl]amine] were under 6.00 and “− (− indicates ≦ 10−fold)”.
Consider `Cc1ccccc1C(C)c1nc(N2CCCC2)c2ccccc2n1` (centres unmarked) [Example 342, 4-(Pyrrolidin-1-yl)-2-(1-o-tolylethyl)quinazoline], for which the pEC50 in experiment [1] (setting [3]) was under 6.00. Further, the “Selectivity, CB2 vs. CB1” value in experiment [2] is recorded as “− (− indicates ≦ 10−fold)”.
The like results for `COc1cc2nc(Nc3ccc(C(C)(C)C)cc3)nc(N3CCCC3)c2cc1OC` [Example 298, N-(4-tert-butylphenyl)-6,7-dimethoxy-4-(pyrrolidin-1-yl)quinazolin-2-amine] were, in that order, under 6.00 and “− (− indicates ≦ 10−fold)”.
The like results for `CCOC(=O)N1CCN(c2nc(-c3ccccc3Cl)nc3ccc([N+](=O)[O-])cc23)CC1` [Example 343, Ethyl 4-(2-(2-chlorophenyl)-6-nitroquinazolin-4-yl)piperazine-1-carboxylate] were, in that order, under 6.00 and “− (− indicates ≦ 10−fold)”.
The like results for `CCOC(=O)N1CCN(c2nc(-c3ccc(C(C)(C)C)cc3)nc3ccc(Cl)cc23)CC1` [Example 252, Ethyl 4-(2-(4-tert-butylphenyl)-6-chloroquinazolin-4-yl)piperazine-1-carboxylate] were, in that order, under 6.00 and “− (− indicates ≦ 10−fold)”.
`CN1CCN(c2nc(-c3ccccc3Cl)nc3ccccc23)CC1=O` [Example 76, 4-(2-(2-Chlorophenyl)quinazolin-4-yl)-1-methylpiperazin-2-one]: in experiment [1] (setting [3]), the pEC50 was under 6.00. For the same compound, the “Selectivity, CB2 vs. CB1” value in experiment [2] is reported as “− (− indicates ≦ 10−fold)”.
Taken in the same sequence, the figures for `FC(F)(F)Oc1ccc(-c2nc(N3CCCC3)c3ccccc3n2)cc1` [Example 139, 4-Pyrrolidin-1-yl-2-(4-trifluoromethoxyphenyl)quinazoline] were over 6.00 and “− (− indicates ≦ 10−fold)”.
Taken in the same sequence, the figures for `CCOC(=O)N1CCN(c2nc(-c3ccccc3Cl)nc3cc(C(=O)O)ccc23)CC1` [Example 318, 2-(2-Chlorophenyl)-4-(4-(ethoxycarbonyl)piperazin-1-yl)quinazoline-7-carboxylic acid] were under 6.00 and “− (− indicates ≦ 10−fold)”.
In the case of `COc1ccc2nc(-c3ccccc3Cl)nc(N3CCN(C)CC3)c2c1` [Example 177, 2-(2-Chlorophenyl)-6-methoxy-4-(4-methylpiperazin-1-yl)quinazoline], the pEC50 in experiment [1] (setting [3]) was over 6.00. Further, the “Selectivity, CB2 vs. CB1” value in experiment [2] is reported as “− (− indicates ≦ 10−fold)”.
Taken in the same sequence, the figures for `COc1cccc2nc(-c3ccccc3Cl)nc(N3CCN(C(C)=O)CC3)c12` [Example 243, 1-(4-(2-(2-Chlorophenyl)-5-methoxyquinazolin-4-yl)piperazin-1-yl)ethanone] were over 6.00 and “+ (+ indicates > 10−fold)”.
`Clc1ccccc1-c1nc(NCC2CCCCC2)c2ccccc2n1` [Example 193, 2-(2-Chlorophenyl)-N-(cyclohexylmethyl)quinazolin-4-amine] gave a negative-log EC50 (pEC50) in experiment [1] (setting [4]) of under 6.00. Moreover, in experiment [2], the “Selectivity, CB2 vs. CB1” value is “− (− indicates ≦ 10−fold)”.
`CCN(CC)C(=O)c1ccc2nc(-c3ccccc3Cl)nc(N3CCOCC3)c2c1` [Example 315, 2-(2-Chlorophenyl)-N,N-diethyl-4-morpholinoquinazoline-6-carboxamide]: the pEC50 in experiment [1] (setting [4]) was under 6.00. Moreover, in experiment [2], the “Selectivity, CB2 vs. CB1” value is “− (− indicates ≦ 10−fold)”.
`COc1ccc2nc(C3CCCCC3)nc(N3CCN(C)CC3)c2c1` [Example 163, 2-Cyclohexyl-6-methoxy-4-(4-methylpiperazin-1-yl)quinazoline]: the pEC50 in experiment [1] (setting [3]) was over 6.00. Further, the “Selectivity, CB2 vs. CB1” value in experiment [2] is listed as “− (− indicates ≦ 10−fold)”.
The compound `FC(F)(F)Oc1ccc2nc(-c3ccccc3Cl)nc(N3CCCC3)c2c1` [Example 182, 2-(2-Chlorophenyl)-4-(pyrrolidin-1-yl)-6-(trifluoromethoxy) quinazoline] had a pEC50 in experiment [1] (setting [4]) of under 6.00. Further, the “Selectivity, CB2 vs. CB1” value in experiment [2] is listed as “− (− indicates ≦ 10−fold)”.
For the compound `CCOC(=O)N1CCN(c2nc(-c3ccc(C(C)(C)C)cc3)nc3ccc(OC)cc23)CC1` [Example 250, Ethyl 4-(2-(4-tert-butylphenyl)-6-methoxyquinazolin-4-yl)piperazine-1-carboxylate], in experiment [1] (setting [3]), the pEC50 is over 6.00. Also, the “Selectivity, CB2 vs. CB1” value in experiment [2] is listed as “+ (+ indicates > 10−fold)”.
The like results for `CC1CCN(c2nc(-c3ccccc3Cl)nc3ccc(C(=O)NC4CCCCC4)cc23)CC1` [Example 312, 2-(2-Chlorophenyl)-N-cyclohexyl-4-(4-methylpiperidin-1-yl)quinazoline-6-carboxamide] were, in that order, over 6.00 and “− (− indicates ≦ 10−fold)”.
As for `Cc1ccccc1Nc1nc(-c2ccccc2Cl)nc2ccccc12` [Example 331, 2-(2-Chlorophenyl)-N-o-tolylquinazolin-4-amine], the pEC50 in experiment [1] (setting [3]) was under 6.00. In addition, the “Selectivity, CB2 vs. CB1” value in experiment [2] is “− (− indicates ≦ 10−fold)”.
Taken in the same sequence, the figures for `COc1ccc(Oc2nc(N3CCCC3)c3cc(OC)c(OC)cc3n2)cc1` [Example 297, 6,7-Dimethoxy-2-(4-methoxyphenoxy)-4-(pyrrolidin-1-yl)quinazoline] were under 6.00 and “− (− indicates ≦ 10−fold)”.
